The source of these data is patent publication US20080070867A1, “2-Imidazolone and 2-Imidazolidinone Heterocyclic Inhibitors of Tyrosine Phosphatases” (Metabasis Therapeutics, Inc., priority 2005, published 2008).

SMILES strings stand for the structures.

The target of this assay is T1, Human recombinant PTP-1B (Homo sapiens, UniProt P18031).
T1 construct: Human recombinant PTP-1B, containing amino acids 1-321, fused to GST enzyme; GST (glutathione S-transferase)
T1 sequence (P18031 1-321): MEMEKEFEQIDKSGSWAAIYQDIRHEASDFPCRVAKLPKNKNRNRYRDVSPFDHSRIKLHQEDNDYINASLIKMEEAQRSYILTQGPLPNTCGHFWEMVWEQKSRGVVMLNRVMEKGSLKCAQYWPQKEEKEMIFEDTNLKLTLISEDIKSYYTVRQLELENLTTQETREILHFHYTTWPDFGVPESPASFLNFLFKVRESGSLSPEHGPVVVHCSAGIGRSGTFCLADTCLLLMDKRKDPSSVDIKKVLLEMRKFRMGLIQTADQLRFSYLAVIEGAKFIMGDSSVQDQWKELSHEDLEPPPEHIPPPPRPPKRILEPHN
The assay is described as follows: Assay for PTP-1B Activity (pNPP substrate). It is filed as biochemical. To be noted: human recombinant PTP-1B (1-321) GST fusion, 2 mM pNPP, pH 7.4, 30° C., 20 min; read-out: Activity Code (IC50 range). The text has this: The activity of the compounds as modulators of protein tyrosine phosphatase, including PTP-1B, may be measured in standard assays (see, e.g., Examples 41 and 42). Briefly, the assay described herein employs human recombinant PTP-1B and a pNPP substrate in a rescue assay.
Assay for PTP-1B Activity
Enzyme: Human recombinant PTP-1B, containing amino acids 1-321, fused to GST enzyme (glutathione S-transferase) purified by affinity chromatography (Huyer et al, 1997, J. Biol. Chem., 272, 843-852).
pNPP: p-Nitrophenyl Phosphate (Calbiochem)
Assay Buffer: 50 mM HEPES (pH 7.4), 100 mM NaCl, 2 mM EDTA, 3 mM DTT
(5×) pNPP substrate: 10 mM pNPP in assay buffer
Enzyme: 1 mg/ml PTP1B (1-321), dilute 1:200 in assay buffer
Assay buffer: 50 mM HEPES (pH 7.4), 100 mM NaCl, 2 mM EDTA, 3 mM DTT
Enzyme dilution buffer: 50 mM HEPES (pH 7.4), 100 mM NaCl, 2 mM EDTA, 3 mM DTT
Substrate 198 mM p-Nitrophenyl Phosphate (pNPP) store at 4° C.
The assay was carried out at 30° C. in 96 well plates. The reaction mixture in 60 ul contained 50 mM HEPES (pH 7.4), 100 mM NaCl, 2 mM EDTA, 3 mM DTT, and 2 mM p-Nitrophenyl Phosphate (pNPP). 5 ul of the test compound (inhibitor) dissolved in DMSO or DMSO alone for control was added to each well and the plate was mixed for 2 min. The reaction was initiated by adding 20 ul of diluted PTP1B (5 ng/ul in 50 mM HEPES (pH 7.4), 100 mM NaCl, 2 mM EDTA, 3 mM DTT). After 20 min at 30° C., the enzyme reaction was terminated by adding 100 ul of 2 M K2CO3 to each well. The phosphatase activity was detected by using Victor II plate reader (Wallac) with absorbance detection at 405 nm. All the assays were done at least in duplicate. The initial rate of pNP is plotted against the concentration of inhibitor.
`CC(C)OC(=O)OC(C)OC(=O)c1ccc(-c2cn(Cc3ccccc3)c(=O)n2Cc2ccc(C(F)(F)P(=O)(O)OC(C)OC(=O)OC(C)C)c(Br)c2)cc1` (centres unmarked) [Compound 59, 4-[1-Benzyl-3-(3-bromo-4-{difluoro-[hydroxy-(1-isopropoxy-carbonyloxy-ethoxy)-phosphoryl]-methyl}-benzyl)-2-oxo-2,3-dihydro-1H-imidazol-4-yl]-benzoic acid 1-isopropoxy-carbonyloxy-ethyl ester]: the IC50 lay in the range of 2500 to 25000 nM. Consider `O=C(O)c1ccc(-c2cn(Cc3ccccc3)c(=O)n2Cc2ccc(C(F)(F)P(=O)(O)O)c(Br)c2)cc1` [Compound 2, 4-{1-Benzyl-3-[3-bromo-4-(difluoro-phosphono-methyl)-benzyl]-2-oxo-2,3-dihydro-1H-imidazol-4-yl}-benzoic acid], for which the IC50 lay in the range of 250 to 2500 nM. Take `COC(=O)c1ccc(-c2cn(C)c(=O)n2Cc2ccc(C(F)(F)P(=O)(O)O)c(Br)c2)cc1` [Compound 38, 4-{3-[3-Bromo-4-(difluoro-phosphono-methyl)-benzyl]-1-methyl-2-oxo-2,3-dihydro-1H-imidazol-4-yl}-benzoic acid methyl ester]: the IC50 was 250 to 2500 nM. The figure for `CCCn1cc(-c2ccc(C(=O)OC)cc2)n(Cc2ccc(C(F)(F)P(=O)(O)O)c(Br)c2)c1=O` [Compound 48, 4-{3-[3-Bromo-4-(difluoro-phosphono-methyl)-benzyl]-2-oxo-1-propyl-2,3-dihydro-1H-imidazol-4-yl}-benzoic acid methyl ester] is 100 to 249 nM.

Consider `CCOC(=O)n1cc(-c2ccc(C(=O)OC)cc2)n(Cc2ccc(C(F)(F)P(=O)(O)O)c(Br)c2)c1=O` [Compound 37, 3-[3-Bromo-4-(difluoro-phosphono-methyl)-benzyl]-4-(4-methoxycarbonyl-phenyl)-2-oxo-2,3-dihydro-imidazole-1-carboxylic acid ethyl ester], for which the IC50 lay in the range of 250 to 2500 nM. Under `Cn1cc(-c2ccc(C(=O)O)cc2)n(Cc2ccc(C(F)(F)P(=O)(O)O)c(Br)c2)c1=O` [Compound 42, 4-{3-[3-Bromo-4-(difluoro-phosphono-methyl)-benzyl]-1-methyl-2-oxo-2,3-dihydro-1H-imidazol-4-yl}-benzoic acid] stands 250 to 2500 nM; under `O=c1n(Cc2ccccc2)cc(-c2ccc3c(c2)OCCO3)n1Cc1ccc(C(F)(F)P(=O)(O)O)c(Br)c1` [Compound 30, ({4-[3-Benzyl-5-(2,3-dihydro-benzo[1,4]dioxin-6-yl)-2-oxo-2,3-dihydro-imidazol-1-ylmethyl]-2-bromo-phenyl}-difluoro-methyl)-phosphonic acid], 250 to 2500 nM. Under `O=C(O)c1ccc(-c2cn(CCc3ccccc3)c(=O)n2Cc2ccc(C(F)(F)P(=O)(O)O)c(Br)c2)cc1` [Compound 14, 4-{3-[3-Bromo-4-(difluoro-phosphono-methyl)-benzyl]-2-oxo-1-phenethyl-2,3-dihydro-1H-imidazol-4-yl}-benzoic acid] stands 250 to 2500 nM; under `O=C(O)c1ccc(Cn2cc(-c3ccccc3)n(Cc3ccc(C(F)(F)P(=O)(O)O)c(Br)c3)c2=O)cc1` [Compound 55, 4-{3-[3-Bromo-4-(difluoro-phosphono-methyl)-benzyl]-2-oxo-4-phenyl-2,3-dihydro-imidazol-1-ylmethyl}-benzoic acid], 250 to 2500 nM. The figure for `CC(C)(C)C(=O)OCOP(=O)(OCOC(=O)C(C)(C)C)C(F)(F)c1ccc(Cn2c(-c3ccc(C#N)cc3)cn(Cc3ccccc3)c2=O)cc1Br` [Compound 57, 2,2-Dimethyl-propionic acid ({4-[3-benzyl-5-(4-cyano-phenyl)-2-oxo-2,3-dihydro-imidazol-1-ylmethyl]-2-bromo-phenyl}-difluoro-methyl)-(2,2-dimethyl-propionyloxy-methoxy)-phosphinoyloxymethyl ester] is more than 25000 nM; for `CS(=O)(=O)c1ccc(Cn2ccn(Cc3ccc(C(F)(F)P(=O)(O)O)c(Br)c3)c2=O)cc1` [Compound 50, ({2-Bromo-4-[3-(4-methanesulfonyl-benzyl)-2-oxo-2,3-dihydro-imidazol-1-ylmethyl]-phenyl}-difluoro-methyl)-phosphonic acid] it is 250 to 2500 nM.

One may read the IC50 as the point on the concentration scale where inhibition reaches its midpoint.
